Laboratory results: patent US11369651B2, “Uses of FU-LING (Poria cocos) extract and tumulosic acid in protecting muscles” (SINPHAR PHARMACEUTICAL CO., LTD. (DONGSHAN, TAIWAN), priority 2016, dated 2022)

Columns and labels:
Assay type in all cases: cell-based, mice
MyHC = test: Expression of myoblast differentiation marker MyHC in C2C12 cells by Western blot; settings: for Expression level of MyHC (%): 4 days, control group = 100%
Description: (§1) As described above, myogenin and MyHC can be used as markers for myoblast differentiation. To investigate whether FU-LING extract and tumulosic acid have the effect of promoting differentiation of myoblasts, tumulosic acid (purchased from Sinphar pharmaceutical co. ltd), FU-LING meat extract obtained from Example 1 (1-4), FU-LING epidermis extract obtained from Example 1 (1-6), and the FU-LING fermentation extract obtained from Example 1 (1-7) were formulated into the following: (1) tumulosic acid solution, (2) FU-LING meat extract solution, (3) FU-LING epidermis extract solution, and (4) FU-LING fermentation extract solution, respectively, in dimethyl sulfoxide (DMSO; purchased from Sigma Company).
(§2) After 80% confluence of cells was attained in H-DMEM medium, cells were separated into fourteen groups and treated as follows: • (1) Control group: The medium was replaced by a differentiation medium supplemented with 2% horse serum, and the cells were cultured for 4 days. • (2) Meat extract group (3 groups): The medium was replaced by a differentiation medium supplemented with 2% horse serum, and FU-LING meat extract solution was then added into the medium (the final concentration was 0.1, 1 or 10 ng/mL) to perform a co-treatment for 4 days. • (3) Epidermis extract group (4 groups): The medium was replaced by a differentiation medium supplemented with 2% horse serum, and FU-LING epidermis extract solution was then added into the medium (the final concentration was 0.01, 0.1, 0.5 or 1 ng/mL) to perform a co-treatment for 4 days. • (4) Fermentation extract group (3 groups): The medium was replaced by a differentiation medium supplemented with 2% horse serum, and FU-LING fermentation extract solution was then added into the medium (the final concentration was 0.2, 2, or 20 ng/mL) to perform a co-treatment for 4 days. • (5) Tumulosic acid group (4 groups): The medium was replaced by a differentiation medium supplemented with 2% horse serum, and tumulosic acid solution was then added into the medium (the final concentration was 0.01, 0.1, 1 or 10 ng/mL) to perform a co-treatment for 4 days.
(§3) After that, cell proteins in each group were extracted. Thereafter, the expression levels of myoblast differentiation markers (myogenin and MyHC) were detected by Western blot. Finally, the control group served as a basis (e.g., the expression level of the control group was 100%) for calculating the relative expression levels of myogenin and MyHC proteins in each group.

myogenin = test: Expression of myoblast differentiation marker myogenin in C2C12 cells by Western blot; settings: for Expression level of myogenin (%): 4 days, control group = 100%; for increase of the expression level of myogenin protein: vs control
Description: as §1, §2, §3

C2C12 cells = test: TNF-α induced muscle cell injury model, intracellular ROS; settings: 4 days in differentiation medium, relative to 0 ng/mL
Description: Firstly, C2C12 cells (i.e., myoblasts of mice, purchased from ATCC) were cultured in H-DMEM medium (purchased from Sigma company) until 80% confluence was attained (i.e., the mixed cell monolayer comprised 80% of the area). Thereafter, the cells were separated into four groups, and the mediums of all the groups were replaced by differentiation mediums supplemented with 2% horse serum. TNF-α (purchased from Sigma company) was then added into those mediums to provide final concentrations of 0, 2, 5 or 10 ng/mL respectively. After being co-treated with the differentiation medium and TNF-α for 4 days, the intracellular reactive oxidative stress (ROS) of the C2C12 cells was measured to serve as the index for model evaluation. Accordingly, a TNF-α induced muscle cell injury model was established. Finally, the group that was not treated with TNF-α (i.e., the concentration of TNF-α was 0 ng/mL) served as a basis for calculating the relative intracellular ROS of the other groups. The results are shown in FIG. 1 (all the data are presented as average values±SEM, n=6, analyzed with a t-test, ***p<0.001).

Compound | Expression level of MyHC (%) (MyHC; 0.01 ng/mL) | Expression level of MyHC (%) (MyHC; 0.1 ng/mL) | Expression level of MyHC (%) (MyHC; 1 ng/mL) | Expression level of MyHC (%) (MyHC; 10 ng/mL) | increase of the expression level of MyHC protein (MyHC; 10 μg/ml, vs control) | Expression level of myogenin (%) (myogenin; 0.01 ng/mL) | Expression level of myogenin (%) (myogenin; 0.1 ng/mL) | Expression level of myogenin (%) (myogenin; 1 ng/mL) | Expression level of myogenin (%) (myogenin; 10 ng/mL) | increase of the expression level of myogenin protein (myogenin; 10 μg/ml) | increase of the expression level of myogenin protein (myogenin; 0.01-0.1 μg/ml) | intracellular reactive oxidative stress (ROS) of C2C12 cells (C2C12 cells; 5 ng/mL TNF-α) | intracellular reactive oxidative stress (ROS) of C2C12 cells (C2C12 cells; 10 ng/mL TNF-α)
C=C(CC[C@@H](C(=O)O)[C@H]1[C@H](O)C[C@@]2(C)C3=C(CC[C@]12C)[C@@]1(C)CC[C@H](O)C(C)(C)[C@@H]1CC3)C(C)C [Tumulosic acid, tumulosic acid] | 90 | 80 | 70 | 180 | about 80% | 130 | 130 | 160 | 490 | about 390% | about 30% |  | 
TNF-α |  |  |  |  |  |  |  |  |  |  |  | increased | significantly increased
